Assay results: US4650801A, “Anti-cancer compositions for delivering 5-fluorouracil” (Taiho Pharmaceutical Company, Ltd., priority 1978, dated 1987)
Read-outs that look alike come from different tables or passages of the source.

Key:
in vivo = conditions: mouse, in vivo, po
Protocol: (§1) The anti-cancer compositions of this invention are tested in mice by the following methods to determine acute toxicity, anti-cancer effect and therapeutic index
(§2) Male mice of ICR strain weighing 22±1 g are used, 5 mice in each group. A 5-fluorouracil (a) and uracil derivative (b) in the proportions listed in Tables 1-16 are suspended in a 5% solution of gum arabic to prepare a suspension, which is forcibly orally administered to each mouse through a tube at a dose of 1 ml/100 g. Over the following period of three weeks the mice are checked every day for poisoning, body weight and mortality. The LD50 is determined according to the up-and-down method 3 weeks after the administration.

male mice of ICR strain = test: in vivo; conditions: 30240 min
Protocol: as §1, §2

sarcoma 180 = format: in vivo
Protocol: as §1, §2
Tissues of sarcoma 180, 2×10^6, are subcutaneously transplanted in the back of male mice of ICR strain (6 mice in each group). A 5-fluorouracil (a) and uracil derivative (b) in the proportions listed in Tables 1-16 are suspended in a 5% solution of gum arabic to prepare a suspension. Twenty-four hours after the transplantation and during the following seven consecutive days the suspension is orally given to the animal once every day.
The LD50 and ED50 values obtained above are used to determine the therapeutic index (LD50 /ED50).

[1] = (b) = 1(2-Tetrahydrofuryl)uracil, (b)/(a) mol ratio 1
[2] = (b) = 1(2-Tetrahydrofuryl)uracil, (b)/(a) mol ratio 2
[3] = (b) = 1(2-Tetrahydrofuryl)uracil, (b)/(a) mol ratio 5
[4] = (b) = 1Acetyluracil, (b)/(a) mol ratio 1
[5] = (b) = 1Acetyluracil, (b)/(a) mol ratio 2
[6] = (b) = 1Acetyluracil, (b)/(a) mol ratio 5
[7] = (b) = 1Cyclohexylcarbamoyluracil, (b)/(a) mol ratio 0.5
[8] = (b) = 1Cyclohexylcarbamoyluracil, (b)/(a) mol ratio 5
[9] = (b) = 1n-Hexylcarbamoyluracil, (b)/(a) mol ratio 1
[10] = (b) = 1n-Hexylcarbamoyluracil, (b)/(a) mol ratio 2
[11] = (b) = 1n-Hexylcarbamoyluracil, (b)/(a) mol ratio 10
[12] = (b) = 2'-Deoxycytidine, (b)/(a) mol ratio 1
[13] = (b) = 2'-Deoxycytidine, (b)/(a) mol ratio 2
[14] = (b) = 2'-Deoxyuridine, (b)/(a) mol ratio 1
[15] = (b) = 2'-Deoxyuridine, (b)/(a) mol ratio 2
[16] = (b) = 2'-Deoxyuridine, (b)/(a) mol ratio 20
[17] = (b) = 3Benzoyluracil, (b)/(a) mol ratio 1
[18] = (b) = 3Benzoyluracil, (b)/(a) mol ratio 2
[19] = (b) = 3Benzoyluracil, (b)/(a) mol ratio 10
[20] = (b) = 5Bromo-2'-deoxyuridine, (b)/(a) mol ratio 0.5
[21] = (b) = 5Bromo-2'-deoxyuridine, (b)/(a) mol ratio 2
[22] = (b) = 5Bromo-2'-deoxyuridine, (b)/(a) mol ratio 10
[23] = (b) = 5Bromouracil, (b)/(a) mol ratio 0.5
[24] = (b) = 5Bromouracil, (b)/(a) mol ratio 2
[25] = (b) = 5Bromouracil, (b)/(a) mol ratio 10
[26] = (b) = 5Iodouracil, (b)/(a) mol ratio 1
[27] = (b) = 5Iodouracil, (b)/(a) mol ratio 5
[28] = (b) = Cytidine, (b)/(a) mol ratio 2
[29] = (b) = Cytidine, (b)/(a) mol ratio 10
[30] = (b) = Cytosine, (b)/(a) mol ratio 10
[31] = (b) = Orotic acid, (b)/(a) mol ratio 2
[32] = (b) = Orotic acid, (b)/(a) mol ratio 20
[33] = (b) = Thymidine, (b)/(a) mol ratio 0.5
[34] = (b) = Thymidine, (b)/(a) mol ratio 2
[35] = (b) = Thymidine, (b)/(a) mol ratio 10
[36] = (b) = Thymine, (b)/(a) mol ratio 0.5
[37] = (b) = Thymine, (b)/(a) mol ratio 2
[38] = (b) = Thymine, (b)/(a) mol ratio 10
[39] = (b) = Uridine, (b)/(a) mol ratio 1
[40] = (b) = Uridine, (b)/(a) mol ratio 2
[41] = (b) = Uridine, (b)/(a) mol ratio 20
[42] = (b) = 1Cyclohexylcarbamoyluracil, (b)/(a) mol ratio 2
[43] = (b) = 2'-Deoxycytidine, (b)/(a) mol ratio 10
[44] = (b) = 5Iodouracil, (b)/(a) mol ratio 2
[45] = (b) = Orotic acid, (b)/(a) mol ratio 1

For `O=c1[nH]cc(F)c(=O)n1C1CCCO1` (stereo not shown) [Compound 6, 3-(2-Tetrahydrofuryl)-5-fluorouracil], the LD50 at 504 h (in vivo; [1]) was 874 mg/kg, the LD50 at 504 h (in vivo; [2]) was 650 mg/kg and the LD50 at 504 h (in vivo; [3]) was 535 mg/kg. For the same molecule, the LD50 at 504 h (in vivo; [4]) was 702 mg/kg, the LD50 at 504 h (in vivo; [5]) was 468 mg/kg and the LD50 at 504 h (in vivo; [6]) was 246 mg/kg. It also gave an LD50 at 504 h (in vivo; [7]) of 833 mg/kg, an LD50 at 504 h (in vivo; [8]) of 576 mg/kg and an LD50 at 504 h (in vivo; [9]) of 928 mg/kg. For the same molecule, the LD50 at 504 h (in vivo; [10]) was 844 mg/kg, the LD50 at 504 h (in vivo; [11]) was 469 mg/kg and the LD50 at 504 h (in vivo; [12]) was 928 mg/kg. The LD50 at 504 h (in vivo; [13]) was 843 mg/kg, the LD50 at 504 h (in vivo; [14]) was 845 mg/kg and the LD50 at 504 h (in vivo; [15]) was 790 mg/kg. The LD50 at 504 h (in vivo; [16]) was 525 mg/kg, the LD50 at 504 h (in vivo; [17]) was 768 mg/kg and the LD50 at 504 h (in vivo; [18]) was 663 mg/kg. It also gave an LD50 at 504 h (in vivo; [19]) of 448 mg/kg, an LD50 at 504 h (in vivo; [20]) of 640 mg/kg and an LD50 at 504 h (in vivo; [21]) of 478 mg/kg. For the same molecule, the LD50 at 504 h (in vivo; [22]) was 308 mg/kg, the LD50 at 504 h (in vivo; [23]) was 745 mg/kg and the LD50 at 504 h (in vivo; [24]) was 575 mg/kg. The LD50 at 504 h (in vivo; [25]) was 412 mg/kg, the LD50 at 504 h (in vivo; [26]) was 467 mg/kg and the LD50 at 504 h (in vivo; [27]) was 194 mg/kg. It also gave an LD50 at 504 h (in vivo; [28]) of 928 mg/kg, an LD50 at 504 h (in vivo; [29]) of 773 mg/kg and an LD50 at 504 h (in vivo; [30]) of 639 mg/kg. It also gave an LD50 at 504 h (in vivo; [31]) of 969 mg/kg, an LD50 at 504 h (in vivo; [32]) of 806 mg/kg and an LD50 at 504 h (in vivo; [33]) of 963 mg/kg. For the same molecule, the LD50 at 504 h (in vivo; [34]) was 886 mg/kg, the LD50 at 504 h (in vivo; [35]) was 639 mg/kg and the LD50 at 504 h (in vivo; [36]) was 830 mg/kg. For the same molecule, the LD50 at 504 h (in vivo; [37]) was 537 mg/kg, the LD50 at 504 h (in vivo; [38]) was 324 mg/kg and the LD50 at 504 h (in vivo; [39]) was 945 mg/kg. The LD50 at 504 h (in vivo; [40]) was 815 mg/kg, the LD50 at 504 h (in vivo; [41]) was 597 mg/kg and the LD50 (male mice of ICR strain; [42]) was 694 mg/kg. The LD50 (male mice of ICR strain; [43]) was 680 mg/kg, the LD50 (male mice of ICR strain; [44]) was 380 mg/kg and the LD50 (male mice of ICR strain; [45]) was 1020 mg/kg. For the same molecule, the “Therapeutic Index (LD50/ED50)” value (sarcoma 180; [1]) was 17.1, the “Therapeutic Index (LD50/ED50)” value (sarcoma 180; [2]) was 22.4 and the “Therapeutic Index (LD50/ED50)” value (sarcoma 180; [3]) was 29.7. The “Therapeutic Index (LD50/ED50)” value (sarcoma 180; [4]) was 21.9, the “Therapeutic Index (LD50/ED50)” value (sarcoma 180; [5]) was 18.0 and the “Therapeutic Index (LD50/ED50)” value (sarcoma 180; [6]) was 15.4. The “Therapeutic Index (LD50/ED50)” value (sarcoma 180; [7]) was 15.1, the “Therapeutic Index (LD50/ED50)” value (sarcoma 180; [42]) was 15.1 and the “Therapeutic Index (LD50/ED50)” value (sarcoma 180; [8]) was 17.5. The “Therapeutic Index (LD50/ED50)” value (sarcoma 180; [9]) was 15.7, the “Therapeutic Index (LD50/ED50)” value (sarcoma 180; [10]) was 20.6 and the “Therapeutic Index (LD50/ED50)” value (sarcoma 180; [11]) was 16.8. For the same molecule, the “Therapeutic Index (LD50/ED50)” value (sarcoma 180; [12]) was 15.7, the “Therapeutic Index (LD50/ED50)” value (sarcoma 180; [13]) was 17.9 and the “Therapeutic Index (LD50/ED50)” value (sarcoma 180; [43]) was 20.0. For the same molecule, the “Therapeutic Index (LD50/ED50)” value (sarcoma 180; [14]) was 15.9, the “Therapeutic Index (LD50/ED50)” value (sarcoma 180; [15]) was 18.8 and the “Therapeutic Index (LD50/ED50)” value (sarcoma 180; [16]) was 20.2. The “Therapeutic Index (LD50/ED50)” value (sarcoma 180; [17]) was 18.3, the “Therapeutic Index (LD50/ED50)” value (sarcoma 180; [18]) was 20.7 and the “Therapeutic Index (LD50/ED50)” value (sarcoma 180; [19]) was 17.9. For the same molecule, the “Therapeutic Index (LD50/ED50)” value (sarcoma 180; [20]) was 13.1, the “Therapeutic Index (LD50/ED50)” value (sarcoma 180; [21]) was 15.9 and the “Therapeutic Index (LD50/ED50)” value (sarcoma 180; [22]) was 14.0. For the same molecule, the “Therapeutic Index (LD50/ED50)” value (sarcoma 180; [23]) was 19.1, the “Therapeutic Index (LD50/ED50)” value (sarcoma 180; [24]) was 22.1 and the “Therapeutic Index (LD50/ED50)” value (sarcoma 180; [25]) was 19.6. For the same molecule, the “Therapeutic Index (LD50/ED50)” value (sarcoma 180; [26]) was 18.0, the “Therapeutic Index (LD50/ED50)” value (sarcoma 180; [44]) was 22.4 and the “Therapeutic Index (LD50/ED50)” value (sarcoma 180; [27]) was 17.6. For the same molecule, the “Therapeutic Index (LD50/ED50)” value (sarcoma 180; (b) = Cytidine, (b)/(a) mol ratio 1) was 17.6, the “Therapeutic Index (LD50/ED50)” value (sarcoma 180; [28]) was 23.8 and the “Therapeutic Index (LD50/ED50)” value (sarcoma 180; [29]) was 22.7. The “Therapeutic Index (LD50/ED50)” value (sarcoma 180; (b) = Cytosine, (b)/(a) mol ratio 1) was 18.2, the “Therapeutic Index (LD50/ED50)” value (sarcoma 180; (b) = Cytosine, (b)/(a) mol ratio 2) was 24.9 and the “Therapeutic Index (LD50/ED50)” value (sarcoma 180; [30]) was 26.6. The “Therapeutic Index (LD50/ED50)” value (sarcoma 180; [45]) was 14.8, the “Therapeutic Index (LD50/ED50)” value (sarcoma 180; [31]) was 15.9 and the “Therapeutic Index (LD50/ED50)” value (sarcoma 180; [32]) was 17.5. For the same molecule, the “Therapeutic Index (LD50/ED50)” value (sarcoma 180; [33]) was 14.4, the “Therapeutic Index (LD50/ED50)” value (sarcoma 180; [34]) was 14.1 and the “Therapeutic Index (LD50/ED50)” value (sarcoma 180; [35]) was 10.7. The “Therapeutic Index (LD50/ED50)” value (sarcoma 180; [36]) was -17.3, the “Therapeutic Index (LD50/ED50)” value (sarcoma 180; [37]) was 19.9 and the “Therapeutic Index (LD50/ED50)” value (sarcoma 180; [38]) was 23.1. The “Therapeutic Index (LD50/ED50)” value (sarcoma 180; [39]) was 22.0, the “Therapeutic Index (LD50/ED50)” value (sarcoma 180; [40]) was 26.3 and the “Therapeutic Index (LD50/ED50)” value (sarcoma 180; [41]) was 20.6. The “Therapeutic Index (LD50/ED50)” value (sarcoma 180; (b)/(a) mol ratio 0 (alone)) was 13.1.
